Tests used:
Format in all cases: in vivo
[1] = test system: barnyardgrass (Echinochloa crus-galli); test: Test A preemergence, barnyardgrass; conditions: 0 to 100 scale (0 no effect, 100 complete control)
Text: (§1) Test A Seeds of plant species selected from barnyardgrass (Echinochloa crus-galli), kochia (Kochia scoparia), ragweed (common ragweed, Ambrosia elatior), ryegrass, Italian (Lolium multiflorum), foxtail, giant (Setaria faberii), and pigweed (Amaranthus retroflexus), were planted into a blend of loam soil and sand and treated preemergence with a directed soil spray using test chemicals formulated in a non-phytotoxic solvent mixture which included a surfactant.
(§2) At the same time, plants selected from these weed species and also blackgrass (Alopecurus myosuroides), galium (catchweed bedstraw, Galium aparine), wheat (Triticum aestivum), and corn (Zea mays) were planted in pots containing the same blend of loam soil and sand and treated with postemergence applications of test chemicals formulated in the same manner. Plants ranged in height from 2 to 10 cm and were in the one- to two-leaf stage for the postemergence treatment. Treated plants and untreated controls were maintained in a greenhouse for approximately 10 days, after which time all treated plants were compared to untreated controls and visually evaluated for injury. Plant response ratings, summarized in Table A, are based on a 0 to 100 scale where 0 is no effect and 100 is complete control. A dash (-) response means no test result.

kochia (Kochia scoparia) [2] = test: Test A preemergence, kochia; conditions: 0 to 100 scale (0 no effect, 100 complete control)
Text: as §1, §2

[3] = test system: ragweed (common ragweed, Ambrosia elatior); test: Test A preemergence, ragweed; conditions: 0 to 100 scale (0 no effect, 100 complete control)
Text: as §1, §2

[4] = test system: ryegrass, Italian (Lolium multiflorum); test: Test A preemergence, Italian ryegrass; conditions: 0 to 100 scale (0 no effect, 100 complete control)
Text: as §1, §2

[5] = test system: foxtail, giant (Setaria faberii); test: Test A preemergence, giant foxtail; conditions: 0 to 100 scale (0 no effect, 100 complete control)
Text: as §1, §2

[6] = test system: pigweed (Amaranthus retroflexus); test: Test A preemergence, pigweed; conditions: 0 to 100 scale (0 no effect, 100 complete control)
Text: as §1, §2

[7] = test system: barnyardgrass (Echinochloa crus-galli); test: Test A postemergence, barnyardgrass; conditions: visual injury, 0 to 100 scale (0 no effect, 100 complete control), approximately 10 days
Text: as §1, §2

kochia (Kochia scoparia) [8] = test: Test A postemergence, kochia; conditions: visual injury, 0 to 100 scale (0 no effect, 100 complete control), approximately 10 days
Text: as §1, §2

[9] = test system: ragweed (common ragweed, Ambrosia elatior); test: Test A postemergence, ragweed; conditions: visual injury, 0 to 100 scale (0 no effect, 100 complete control), approximately 10 days
Text: as §1, §2

[10] = test system: ryegrass, Italian (Lolium multiflorum); test: Test A postemergence, Italian ryegrass; conditions: visual injury, 0 to 100 scale (0 no effect, 100 complete control), approximately 10 days
Text: as §1, §2

[11] = test system: foxtail, giant (Setaria faberii); test: Test A postemergence, giant foxtail; conditions: visual injury, 0 to 100 scale (0 no effect, 100 complete control), approximately 10 days
Text: as §1, §2

[12] = test system: pigweed (Amaranthus retroflexus); test: Test A postemergence, pigweed; conditions: visual injury, 0 to 100 scale (0 no effect, 100 complete control), approximately 10 days
Text: as §1, §2

[13] = test system: blackgrass (Alopecurus myosuroides); test: Test A postemergence, blackgrass; conditions: visual injury, 0 to 100 scale (0 no effect, 100 complete control), approximately 10 days
Text: as §1, §2

[14] = test system: galium (catchweed bedstraw, Galium aparine); test: Test A postemergence, galium; conditions: visual injury, 0 to 100 scale (0 no effect, 100 complete control), approximately 10 days
Text: as §1, §2

[15] = test system: wheat (Triticum aestivum); test: Test A postemergence, wheat; conditions: visual injury, 0 to 100 scale (0 no effect, 100 complete control), approximately 10 days
Text: as §1, §2

corn (Zea mays) = test: Test A postemergence, corn; conditions: visual injury, 0 to 100 scale (0 no effect, 100 complete control), approximately 10 days
Text: as §1, §2

Compound | Plant response rating, Barnyardgrass ([1]; 125 g ai/ha) | Plant response rating, Barnyardgrass ([1]; 500 g ai/ha) | Plant response rating, Kochia (kochia (Kochia scoparia) [2]; 125 g ai/ha) | Plant response rating, Kochia (kochia (Kochia scoparia) [2]; 500 g ai/ha) | Plant response rating, Ragweed ([3]; 125 g ai/ha) | Plant response rating, Ragweed ([3]; 500 g ai/ha) | Plant response rating, Ryegrass, Italian ([4]; 125 g ai/ha) | Plant response rating, Ryegrass, Italian ([4]; 500 g ai/ha) | Plant response rating, Foxtail, Giant ([5]; 125 g ai/ha) | Plant response rating, Foxtail, Giant ([5]; 500 g ai/ha) | Plant response rating, Pigweed ([6]; 125 g ai/ha) | Plant response rating, Pigweed ([6]; 500 g ai/ha) | Plant response rating, Barnyardgrass ([7]; 125 g ai/ha) | Plant response rating, Barnyardgrass ([7]; 500 g ai/ha) | Plant response rating, Kochia (kochia (Kochia scoparia) [8]; 125 g ai/ha) | Plant response rating, Kochia (kochia (Kochia scoparia) [8]; 500 g ai/ha) | Plant response rating, Ragweed ([9]; 125 g ai/ha) | Plant response rating, Ragweed ([9]; 500 g ai/ha) | Plant response rating, Ryegrass, Italian ([10]; 125 g ai/ha) | Plant response rating, Ryegrass, Italian ([10]; 500 g ai/ha) | also measured
O=C1NCC(c2cccc(Cn3cccn3)c2)C1C(=O)Nc1cccc(F)c1F (stereo not drawn) [Compound 30] | 0 | 50 | 0 | 0 | 0 | 0 | 0 | 0 | 20 | 90 | 0 | 0 | 20 | 60 | 0 | 0 | 0 | 0 | 0 | 0 | Plant response rating, Foxtail, Giant ([11]; 125 g ai/ha): 30; Plant response rating, Foxtail, Giant ([11]; 500 g ai/ha): 50; Plant response rating, Pigweed ([12]; 125 g ai/ha): 0; Plant response rating, Pigweed ([12]; 500 g ai/ha): 0; Plant response rating, Blackgrass ([13]; 125 g ai/ha): 0; Plant response rating, Blackgrass ([13]; 500 g ai/ha): 0; Plant response rating, Galium ([14]; 125 g ai/ha): 0; Plant response rating, Galium ([14]; 500 g ai/ha): 0; Plant response rating, Wheat ([15]; 125 g ai/ha): 0; Plant response rating, Wheat ([15]; 500 g ai/ha): 0; Plant response rating, Corn (corn (Zea mays); 125 g ai/ha): 0; Plant response rating, Corn (corn (Zea mays); 500 g ai/ha): 0
O=C1NCC(c2cccc(Cn3cncn3)c2)C1C(=O)Nc1ccccc1F (stereo not drawn) [Compound 31] | 0 | 0 | 0 | 0 | 0 | 0 | 0 | 0 | 0 | 0 | 0 | 0 | 0 | 0 | 0 | 0 | 0 | 0 | 0 | 0 | Plant response rating, Foxtail, Giant ([11]; 125 g ai/ha): 0; Plant response rating, Foxtail, Giant ([11]; 500 g ai/ha): 0; Plant response rating, Pigweed ([12]; 125 g ai/ha): 0; Plant response rating, Pigweed ([12]; 500 g ai/ha): 0; Plant response rating, Blackgrass ([13]; 125 g ai/ha): 0; Plant response rating, Blackgrass ([13]; 500 g ai/ha): 0; Plant response rating, Galium ([14]; 125 g ai/ha): 0; Plant response rating, Galium ([14]; 500 g ai/ha): 20; Plant response rating, Wheat ([15]; 125 g ai/ha): 0; Plant response rating, Wheat ([15]; 500 g ai/ha): 0; Plant response rating, Corn (corn (Zea mays); 125 g ai/ha): 0; Plant response rating, Corn (corn (Zea mays); 500 g ai/ha): 0
O=C1NCC(c2cccc(Cn3cncn3)c2)C1C(=O)Nc1cccc(F)c1F (stereo not drawn) [Compound 32] | 0 | 0 | 0 | 0 | 0 | 0 | 0 | 0 | 0 | 40 | 0 | 0 | 0 | 10 | 0 | 0 | 0 | 0 | 0 | 0 | Plant response rating, Foxtail, Giant ([11]; 125 g ai/ha): 0; Plant response rating, Foxtail, Giant ([11]; 500 g ai/ha): 20; Plant response rating, Pigweed ([12]; 125 g ai/ha): 0; Plant response rating, Pigweed ([12]; 500 g ai/ha): 0; Plant response rating, Blackgrass ([13]; 125 g ai/ha): 0; Plant response rating, Blackgrass ([13]; 500 g ai/ha): 0; Plant response rating, Galium ([14]; 125 g ai/ha): 0; Plant response rating, Galium ([14]; 500 g ai/ha): 40; Plant response rating, Wheat ([15]; 125 g ai/ha): 0; Plant response rating, Wheat ([15]; 500 g ai/ha): 0; Plant response rating, Corn (corn (Zea mays); 125 g ai/ha): 0; Plant response rating, Corn (corn (Zea mays); 500 g ai/ha): 0
